Results taken from patent US10363284B2, “β-hairpin peptidomimetics” (POLYPHOR AG, priority 2012, dated 2019).
Positions of bridges follow the written chain, without caps; N, C: chain ends. Non-standard residues stand in square brackets, D forms with d. Residues, ends and D or L forms follow the SMILES beside them. dLys(iPr) = CC(C)NCCCC[C@@H](N)C(=O)O; Lys(iPr) = CC(C)NCCCC[C@H](N)C(=O)O; Orn(iPr) = CC(C)NCCC[C@H](N)C(=O)O; Ac3c = NC1(C(=O)O)CC1

Tests used:
in vitro = format: cell-based
Procedure: (§1) Namalwa cells (CXCR4 natively expressing non-adherent cells, ATCC CRL-1432) were cultured in RPM11640 plus 10% FBS, and pen/strept. HELA cells were maintained in RPMI1640 plus 10% FBS, pen/strept and 2 mM L-glutamine. Cos-7 cells were grown in DMEM medium with […] glucose supplemented with 10% FCS, pen/strept and 2 mM L-glutamine. All cell lines were grown at 37° C. at 5% CO2. Cell media, media supplements, PBS-buffer, HEPES, antibiotic/antimycotic, pen/strept, non essential amino acid, L-glutamine, β-mercaptoethanol and sera were purchased from Gibco (Pailsey, UK). All fine chemicals were supplied by Merck (Darmstadt, Germany).
The cytotoxicity of the peptides to HELA cells (Acc57) and COS-7 cells (CRL-1651) was determined using the MTT reduction assay (T. Mossman, J. Immunol. Meth. 1983, 65, 55-63; M. V. Berridge, A. S. Tan, Arch. Biochem. Biophys. 1993, 303, 474-482). Briefly, the method was as follows: 4000 HELA cells/well and 3400 COS-7 cells/well were seeded and grown in 96-well microtiter plates for 24 h at 37° C. at 5% CO2. Thereafter, time zero (Tz) was determined by MTT reduction (see below). The supernatant of the remaining wells was discarded, and fresh medium and compounds in serial dilutions (12.5, 25 and 50 μM, triplicates; 0 μM, blank) were pipetted into the wells. After incubation of the cells for 48 h at 37° C. at 5% CO2 the supernatant was discarded again and 100 μL MTT reagent (0.5 mg/mL in RPMI1640 and DMEM, respectively)/well was added. Following incubation at 37° C. for 2-4 h the media were aspirated and the cells were spiked (100 μL isopropanol/well). The absorbance of the solubilized formazan was measured at 595 nm (OD595peptide). For each concentration averages were calculated from triplicates. The percentage of growth was calculated as follows: (OD595peptide−OD595Tz)/(OD595blank−OD595Tz)×100%. The GI50 (Growth Inhibition) concentrations were calculated for each peptide by using a trend line function for the concentrations (50, 25, 12.5 and 0 μM), the corresponding percentages and the value 50, (=TREND (C50:C0,%50:%0, 50).

[1] = Plasma stability, mouse plasma; format: in vitro ADME; conditions: for mouse pl. T1/2: 37° C.; for remaining at 24 h, 10 μM: 1440 min, read-out: mouse pl. cpd left at 1440 min
Procedure: (§2) The stability of the peptides in human and mouse plasma was determined by applying the following method: 346.5 μL/deep well of freshly thawed human plasma (Basler Blutspende-dienst) and mouse plasma (Harlan Sera-Lab, UK), respectively, were spiked with 3.5 μL/well of compound dissolved in DMSO/H2O (90/10 [v/v], 1 mM, triplicate) and incubated at 37° C. At t=0, 15, 30, 60, 120, 240 and 1440 min aliquots of 50 μL were transferred to filtration plate wells containing 150 μL/well of 2% formic acid in acetonitrile. Following shaking for 2 min the occurred suspensions were filtrated by vacuum. 100 μL of each filtrate were transferred to a propylene microtiter plate and dried under N2. The residual solids were reconstituted by adding 100 μL/well of water/acetonitrile, 95/5 (v/v)+0.2% formic acid and analyzed by LC/MS as follows: Column: Waters, XBridge C18, mobile phases: (A) water+0.1% formic acid and (B) acetonitrile/water, 95/5 (v/v)+0.1% formic acid, gradient: 5%-100% (B) in 1.8 minutes, electrospray ionization, MRM detection (triple quadrupole). The peak areas were determined and triplicate values are averaged. The stability is expressed in percent of the initial value at t=0. (tx/t0×100). By using the TREND function of EXCEL (Microsoft Office 2003) T1/2 were determined.

CXCR4 receptor = target: T1, CXCR4 receptor (Homo sapiens, UniProt P61073); test: Chemotactic assay (cell migration assay), Namalwa cells, SDF-1 gradient; format: cell-based
T1 construct: CXCR4 natively expressing non-adherent cells; endogenous in cells; host or cells: Namalwa cells (ATCC CRL-1432)
T1 sequence (P61073 whole entry): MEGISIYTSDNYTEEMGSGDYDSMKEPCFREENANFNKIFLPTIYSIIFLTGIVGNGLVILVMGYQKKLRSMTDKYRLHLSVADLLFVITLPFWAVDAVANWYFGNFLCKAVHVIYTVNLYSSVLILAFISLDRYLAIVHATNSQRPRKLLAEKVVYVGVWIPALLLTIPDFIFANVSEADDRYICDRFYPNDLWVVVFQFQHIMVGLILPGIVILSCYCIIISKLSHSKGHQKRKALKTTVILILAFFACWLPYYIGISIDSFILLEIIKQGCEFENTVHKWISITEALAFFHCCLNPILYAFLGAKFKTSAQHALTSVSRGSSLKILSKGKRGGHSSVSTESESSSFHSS
Procedure: as §1
The chemotactic response of Namalwa cells (ATCC CRL-1432) to a gradient of stromal cell-derived factor 1α (SDF-1) was measured using a modified Boyden chamber chemotaxis system (ChemoTx; Neuroprobe). […] Migrated cells were transferred using a “funnel” adaptor to a receiving 96-well plate and the cell number was determined by using the CyQuant™ NF cell proliferation assay (Invitrogen) based on the measurement of cellular DNA content via fluorescent dye binding. […] After incubation for 0.5 h at room temperature the plate was sealed and the fluorescence intensity of each sample was measured by using a Wallac 1420 VICTOR^2™ plate reader (PerkinElmer) with excitation at 485 nm and emission detection at 535 nm. […]

[2] = Plasma stability, human plasma; format: in vitro ADME; conditions: for human pl. T1/2: 37° C.; for remaining at 24 h, 10 μM: 1440 min, read-out: human pl. cpd left at 1440 min
Procedure: as §2

SMILES	GI50 at 48 h (in vitro; African green monkey) [µM]	GI50 at 48 h (in vitro; human) [µM]	mouse pl. T1/2 [1] [h]	remaining at 24 h, 10 μM [1] [%]	IC50 (CXCR4 receptor) [µM]	human pl. T1/2 [2] [h]	remaining at 24 h, 10 μM [2] [%]
CC(C)NCCCC[C@@H]1NC(=O)[C@H](CCC(N)=O)NC(=O)[C@H](Cc2ccc(O)cc2)NC(=O)[C@@H]2CSSC[C@H](NC(=O)[C@H](Cc3ccc(O)cc3)NC(=O)[C@H](Cc3c[nH]cn3)NC(=O)[C@H](Cc3ccc(O)cc3)NC(=O)[C@@H]3CCCN3C(=O)[C@H]3CCCN3C1=O)C(=O)N[C@@H](CO)C(=O)NC1(CC1)C(=O)N1CCC[C@@H]1C(=O)N[C@@H](CCCNC(C)C)C(=O)N[C@@H](CCCNC(=N)N)C(=O)N[C@@H](Cc1ccc(O)cc1)C(=O)N2 [Ex. 2, cyclo(-Tyr^1-His^2-Tyr^3-Cys^4-Ser^5-Acc^6-^DPro^7-Orn(iPr)^8-Arg^9-Tyr^10-Cys^11-Tyr^12-Gln^13-Lys(iPr)^14-^DPro^15-Pro^16-), disulfide bond between Cys^4 and Cys^11] (cyclo(YHYCS[Ac3c][dP][Orn(iPr)]RYCYQ[Lys(iPr)][dP]P); disulfide 4-11)	> 50	> 34	24	100	0.00032 ± 0.0001	24	87
CC(C)NCCCC[C@@H]1NC(=O)[C@H](CCC(N)=O)NC(=O)[C@H](Cc2ccc(O)cc2)NC(=O)[C@@H]2CSSC[C@H](NC(=O)[C@H](Cc3ccc(O)cc3)NC(=O)[C@H](Cc3c[nH]cn3)NC(=O)[C@H](Cc3ccc(O)cc3)NC(=O)[C@@H]3CCCN3C(=O)[C@@H](CCCCNC(C)C)NC1=O)C(=O)N[C@@H](CO)C(=O)N[C@@H](C)C(=O)N1CCC[C@@H]1C(=O)N[C@@H](CCCNC(C)C)C(=O)N[C@@H](CCCNC(=N)N)C(=O)N[C@@H](Cc1ccc(O)cc1)C(=O)N2 [Ex. 1, cyclo(-Tyr^1-His^2-Tyr^3-Cys^4-Ser^5-Ala^6-^DPro^7-Orn(iPr)^8-Arg^9-Tyr^10-Cys^11-Tyr^12-Gln^13-Lys(iPr)^14-^DLys(iPr)^15-Pro^16-), disulfide bond between Cys^4 and Cys^11] (cyclo(A[dP][Orn(iPr)]RYCYQ[Lys(iPr)][dLys(iPr)]PYHYCS); disulfide 6-15)	> 50	> 42	24	100	0.00017 ± 0.0001	24	100
